Data: patent publication US11147802B2, “Substituted oxadiazole chemical compound and composition containing said chemical compound and use thereof” (Shenzhen TargetRx, Inc., priority 2016, dated 2021)

Columns and labels:
[1] = Metabolic stability in human liver microsomes; format: in vitro ADME; conditions: pH 7.4, 1 μM compound, 0.5 mg/mL protein, 37° C.; for half-life at 1 μM: read-out: Human liver microsomes t1/2
Experimental: (§1) Metabolic Stability Evaluation
(§2) Experiments in microsomes: Human liver microsomes: 0.5 mg/mL, Xenotech; Rat liver microsomes: 0.5 mg/mL, Xenotech; Coenzyme (NADPH/NADH): 1 mM, Sigma Life Science; Magnesium chloride: 5 mM, 100 mM phosphate buffer (pH 7.4).
(§3) Preparation of stock solution: Powder of the example compound was accurately weighed and dissolved in DMSO to 5 mM.
(§4) Preparation of phosphate buffer (100 mM, pH7.4): A pre-formulated 0.5M potassium dihydrogen phosphate (150 mL) was mixed with 0.5M dibasic potassium phosphate (700 mL). The pH of the mixture was adjusted to 7.4 with 0.5M dibasic potassium phosphate solution. The mixture was diluted 5-fold with ultrapure water before use, and magnesium chloride was added to obtain a phosphate buffer (100 mM) containing 100 mM potassium phosphate, 3.3 mM magnesium chloride, pH 7.4.
(§5) A NADPH regeneration system solution (containing 6.5 mM NADP, 16.5 mM G-6-P, 3 U/mL G-6-PD, 3.3 mM magnesium chloride) was prepared and placed on wet ice prior to use.
(§6) Preparation of stop solution: acetonitrile solution containing 50 ng/mL propranolol hydrochloride and 200 ng/mL tolbutamide (internal standard). 25057.5 μL of phosphate buffer (pH 7.4) was taken into a 50 mL centrifuge tube, to which 812.5 μL human liver microsomes were added, and mixed to obtain a liver microsome dilution solution with a protein concentration of 0.625 mg/mL. 25057.5 μL of phosphate buffer (pH 7.4) was taken into a 50 mL centrifuge tube, to which 812.5 μL SD rat liver microsomes were added, and mixed to obtain a liver microsome dilution solution with a protein concentration of 0.625 mg/mL.
(§7) Incubation of the samples: The stock solution of the respective compound was respectively diluted to 0.25 mM with an aqueous solution containing 70% acetonitrile, and used as a working solution, ready for use. 398 μL of the dilution solution of human liver microsomes or rat liver microsome were added to a 96-well incubation plate (N=2), respectively, and 2 μL of 0.25 mM working solution was added and mixed.
(§8) Metabolic stability assay: 300 μL of pre-chilled stop solution was added to each well of a 96-well deep well plate and placed on ice as a stop plate. The 96 well incubation plate and NADPH regeneration system were placed in a 37° C. water bath box, shaken at 100 rpm and pre-incubated for 5 min. 80 μL of incubation solution was taken out from each well of the incubation plate and added to the stop plate, mixed, and replenished with 20 μL of NADPH regeneration system solution as a 0-min sample. 80 μL of NADPH regeneration system solution was added to each well of the incubation plate to start the reaction and start counting. […] Separately, 100 μL of the reaction solution was taken at 10, 30, and 90 min reaction, respectively, added to a stop plate, and vortexed for 3 minutes to terminate the reaction. The stop plate was centrifuged at 5000×g at 4° C. for 4 min. 100 μL of the supernatant was added to a 96-well plate to which 100 μL of distilled water was previously added, mixed, and analyzed by LC-MS/MS.
(§9) Data analysis: The peak areas of the corresponding compound and internal standard were detected by LC-MS/MS system, and the ratio of the peak area of the compound to the internal standard was calculated.

[2] = Metabolic stability in rat liver microsomes; format: in vitro ADME; conditions: Sprague-Dawley (SD), pH 7.4, 1 μM compound, 0.5 mg/mL protein, 37° C.; for half-life at 1 μM: read-out: Rat liver microsomes t1/2
Experimental: as §1, §2, §3, §4, §5, §6, §7, §8, §9

| SMILES | microsomal CLint at 1 μM [1] [µL/min/mg] | half-life at 1 μM [1] [h] | microsomal CLint at 1 μM [2] [µL/min/mg] | half-life at 1 μM [2] [h] |
| --- | --- | --- | --- | --- |
| [2H]c1cc(/N=C(/NO)c2nonc2NC([2H])([2H])C([2H])([2H])NS(N)(=O)=O)cc(Br)c1F [Compound 52] | < 9.6 | > 2.5 | 19.2 | 1.2 |
| [2H]C([2H])(Nc1nonc1/C(=N\c1ccc(F)c(Br)c1)NO)C([2H])([2H])NS(N)(=O)=O [Compound 47, 4-({2-[(sulfamoyl)amino]-1,1,2,2-d4-ethyl}amino)-N-(3-bromo-4-fluorophenyl)-N′-hydroxy-1,2,5-oxadiazole-3-carboximidamide] | < 9.6 | > 2.5 | 18.7 | 1.23 |
| NS(=O)(=O)NCCNc1nonc1C(=NO)Nc1ccc(F)c(Br)c1 [Epacadostat, reference compound] | 9.6 | 2.4 | 20.1 | 1.15 |
| [2H]C([2H])(CNc1nonc1/C(=N\c1ccc(F)c(Br)c1)NO)NS(N)(=O)=O [Compound 41, 4-({2-[(sulfamoyl)amino]-2,2-d2-ethyl}amino)-N-(3-bromo-4-fluorophenyl)-N′-hydroxy-1,2,5-oxadiazole-3-carboximidamide] | < 9.6 | > 2.5 | 21 | 1.1 |
| [2H]c1cc(F)c(Br)c([2H])c1/N=C(/NO)c1nonc1NC([2H])([2H])C([2H])([2H])NS(N)(=O)=O [Compound 57, 4-({2-[(sulfamoyl)amino]-1,1,2,2-d4-ethyl}amino)-N-(2,6-d2-3-bromo-4-fluoro-phenyl)-N′-hydroxy-1,2,5-oxadiazole-3-carboximidamide] | < 9.6 | > 2.5 | – | – |
| [2H]C([2H])(CNS(N)(=O)=O)Nc1nonc1/C(=N\c1ccc(F)c(Br)c1)NO [Compound 11] | < 9.6 | > 2.5 | 18.9 | 1.22 |

Other lines, results leading:

| microsomal CLint at 1 μM [1] [µL/min/mg] | half-life at 1 μM [1] [h] | microsomal CLint at 1 μM [2] [µL/min/mg] | half-life at 1 μM [2] [h] | SMILES |
| --- | --- | --- | --- | --- |
| < 9.6 | > 2.5 | 22.6 | 1.02 | [2H]c1c([2H])c(/N=C(/NO)c2nonc2NCC([2H])([2H])NS(N)(=O)=O)c([2H])c(Br)c1F [Compound 76, 4-({2-[(sulfamoyl)amino]-1,1-d2-ethyl}amino)-N-(2,5,6-d3-3-bromo-4-fluoro-phenyl)-N′-hydroxy-1,2,5-oxadiazole-3-carboximidamide] |
| < 9.6 | > 2.5 | 21.3 | 1.08 | [2H]c1cc(/N=C(/NO)c2nonc2NCCNS(N)(=O)=O)cc(Br)c1F [Compound 32, 4-({2-[(sulfamoyl)amino]ethyl}amino)-N-(3-bromo-4-fluoro-5-d-phenyl)-N′-hydroxy-1,2,5-oxadiazole-3-carboximidamide] |
| < 9.6 | > 2.5 | 19.6 | 1.18 | [2H]c1cc(F)c(Br)c([2H])c1/N=C(/NO)c1nonc1NCCNS(N)(=O)=O [Compound 22] |
| < 9.6 | > 2.5 | 20.5 | 1.13 | [2H]c1c([2H])c(/N=C(/NO)c2nonc2NC([2H])([2H])C([2H])([2H])NS(N)(=O)=O)c([2H])c(Br)c1F [Compound 71, 4-({2-[(sulfamoyl)amino]-1,1,2,2-d4-ethyl}amino)-N-(2,5,6-d3-3-bromo-4-fluoro-phenyl)-N′-hydroxy-1,2,5-oxadiazole-3-carboximidamide] |
| < 9.6 | > 2.5 | 17.5 | 1.32 | [2H]c1c([2H])c(/N=C(/NO)c2nonc2NCCNS(N)(=O)=O)c([2H])c(Br)c1F [Compound 66] |
| < 9.6 | > 2.5 | 18.5 | 1.25 | [2H]c1cc(F)c(Br)c([2H])c1/N=C(/NO)c1nonc1NC([2H])([2H])CNS(N)(=O)=O [Compound 81, 4-({2-[(sulfamoyl)amino]-1,1-d2-ethyl}amino)-N-(2,6-d2-3-bromo-4-fluoro-phenyl)-N′-hydroxy-1,2,5-oxadiazole-3-carboximidamide] |
